The values below come from ChEMBL document CHEMBL5291721, “A preclinical secondary pharmacology resource illuminates target-adverse drug reaction associations of marketed drugs” (Nat Commun, 2023).

SMILES strings stand for the structures.

Experiment [1] addresses T1, Alpha-2A adrenergic receptor (Homo sapiens, UniProt P08913).
T1 sequence (P08913 whole entry): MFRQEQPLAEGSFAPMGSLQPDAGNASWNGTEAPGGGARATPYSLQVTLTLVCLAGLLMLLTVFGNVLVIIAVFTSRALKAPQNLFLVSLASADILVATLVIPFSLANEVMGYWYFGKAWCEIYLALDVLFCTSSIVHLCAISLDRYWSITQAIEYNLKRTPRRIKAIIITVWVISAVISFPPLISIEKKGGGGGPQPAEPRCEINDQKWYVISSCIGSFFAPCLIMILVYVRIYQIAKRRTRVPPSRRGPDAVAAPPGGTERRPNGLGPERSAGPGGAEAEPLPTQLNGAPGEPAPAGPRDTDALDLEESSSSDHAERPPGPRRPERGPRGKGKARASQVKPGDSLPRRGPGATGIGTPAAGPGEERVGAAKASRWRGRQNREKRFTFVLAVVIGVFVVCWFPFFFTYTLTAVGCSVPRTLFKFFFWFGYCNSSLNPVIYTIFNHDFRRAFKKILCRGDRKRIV
The class given is functional, cell-based.

In experiment [2] the target is Beta-2 adrenergic receptor (Homo sapiens, UniProt P07550).
For experiment [3], the target named is T2, Type-1 angiotensin II receptor (Homo sapiens, UniProt P30556).
T2 sequence (P30556 whole entry): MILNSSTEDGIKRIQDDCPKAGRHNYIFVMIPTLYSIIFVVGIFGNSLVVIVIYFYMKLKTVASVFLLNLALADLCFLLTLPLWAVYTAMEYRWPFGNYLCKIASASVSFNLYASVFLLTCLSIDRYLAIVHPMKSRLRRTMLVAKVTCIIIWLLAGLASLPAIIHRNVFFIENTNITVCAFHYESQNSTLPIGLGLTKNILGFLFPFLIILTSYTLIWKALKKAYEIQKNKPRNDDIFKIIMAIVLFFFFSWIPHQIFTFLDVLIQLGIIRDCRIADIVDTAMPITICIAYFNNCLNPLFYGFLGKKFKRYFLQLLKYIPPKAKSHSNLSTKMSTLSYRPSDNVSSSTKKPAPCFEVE

The target of experiment [4] is Vasopressin V1a receptor (Homo sapiens, UniProt P37288).
For experiment [5], the target named is Voltage-dependent L-type calcium channel subunit alpha-1C (Rattus norvegicus, UniProt P22002). It is filed as functional.
For experiment [6], the target named is Cannabinoid receptor 1 (Homo sapiens, UniProt P21554). The class given is functional, cell-based.
Experiment [7] deals with D(1A) dopamine receptor (Homo sapiens, UniProt P21728). It is filed as functional, cell-based.
Experiment [8] deals with Growth hormone secretagogue receptor type 1 (Homo sapiens, UniProt Q92847).
The target of experiment [9] is T3, 5-hydroxytryptamine receptor 3A (Homo sapiens, UniProt P46098).
T3 sequence (P46098 whole entry): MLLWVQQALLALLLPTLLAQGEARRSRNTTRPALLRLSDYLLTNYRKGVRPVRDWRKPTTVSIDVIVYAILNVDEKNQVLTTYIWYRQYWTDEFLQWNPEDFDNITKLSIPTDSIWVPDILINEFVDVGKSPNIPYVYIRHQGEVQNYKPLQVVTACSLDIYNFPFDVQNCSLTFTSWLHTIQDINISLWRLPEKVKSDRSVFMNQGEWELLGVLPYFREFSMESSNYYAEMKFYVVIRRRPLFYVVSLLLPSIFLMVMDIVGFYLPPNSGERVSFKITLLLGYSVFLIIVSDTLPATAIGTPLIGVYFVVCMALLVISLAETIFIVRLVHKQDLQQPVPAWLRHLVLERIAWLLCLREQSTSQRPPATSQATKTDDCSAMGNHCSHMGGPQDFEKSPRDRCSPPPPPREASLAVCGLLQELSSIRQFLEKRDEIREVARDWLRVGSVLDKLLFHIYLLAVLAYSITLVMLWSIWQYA
It is filed as functional.

For experiment [10], the target named is Melanocortin receptor 4 (Homo sapiens, UniProt P32245).
Experiment [11] deals with D(3) dopamine receptor (Homo sapiens, UniProt P35462).
The target of experiment [12] is T4, Gamma-aminobutyric acid receptor subunit alpha-1 (Rattus norvegicus, UniProt P62813).
Experiment [13] has as its target T4, Gamma-aminobutyric acid receptor subunit alpha-1. It is filed as functional.
Experiment [14] deals with Voltage-gated inwardly rectifying potassium channel KCNH2 (Homo sapiens, UniProt Q12809). The class given is functional. The conditions noted are these: read-out: AC50.
The target of experiment [15] is Kappa-type opioid receptor (Homo sapiens, UniProt P41145).
In experiment [16] the target is Sodium-dependent dopamine transporter (Homo sapiens, UniProt Q01959).

Usually AC50 stands for the concentration giving half of the maximal activity seen.
Also: assay procedure not described here.

Chain of Voltage-dependent L-type calcium channel subunit alpha-1C (P22002 whole entry): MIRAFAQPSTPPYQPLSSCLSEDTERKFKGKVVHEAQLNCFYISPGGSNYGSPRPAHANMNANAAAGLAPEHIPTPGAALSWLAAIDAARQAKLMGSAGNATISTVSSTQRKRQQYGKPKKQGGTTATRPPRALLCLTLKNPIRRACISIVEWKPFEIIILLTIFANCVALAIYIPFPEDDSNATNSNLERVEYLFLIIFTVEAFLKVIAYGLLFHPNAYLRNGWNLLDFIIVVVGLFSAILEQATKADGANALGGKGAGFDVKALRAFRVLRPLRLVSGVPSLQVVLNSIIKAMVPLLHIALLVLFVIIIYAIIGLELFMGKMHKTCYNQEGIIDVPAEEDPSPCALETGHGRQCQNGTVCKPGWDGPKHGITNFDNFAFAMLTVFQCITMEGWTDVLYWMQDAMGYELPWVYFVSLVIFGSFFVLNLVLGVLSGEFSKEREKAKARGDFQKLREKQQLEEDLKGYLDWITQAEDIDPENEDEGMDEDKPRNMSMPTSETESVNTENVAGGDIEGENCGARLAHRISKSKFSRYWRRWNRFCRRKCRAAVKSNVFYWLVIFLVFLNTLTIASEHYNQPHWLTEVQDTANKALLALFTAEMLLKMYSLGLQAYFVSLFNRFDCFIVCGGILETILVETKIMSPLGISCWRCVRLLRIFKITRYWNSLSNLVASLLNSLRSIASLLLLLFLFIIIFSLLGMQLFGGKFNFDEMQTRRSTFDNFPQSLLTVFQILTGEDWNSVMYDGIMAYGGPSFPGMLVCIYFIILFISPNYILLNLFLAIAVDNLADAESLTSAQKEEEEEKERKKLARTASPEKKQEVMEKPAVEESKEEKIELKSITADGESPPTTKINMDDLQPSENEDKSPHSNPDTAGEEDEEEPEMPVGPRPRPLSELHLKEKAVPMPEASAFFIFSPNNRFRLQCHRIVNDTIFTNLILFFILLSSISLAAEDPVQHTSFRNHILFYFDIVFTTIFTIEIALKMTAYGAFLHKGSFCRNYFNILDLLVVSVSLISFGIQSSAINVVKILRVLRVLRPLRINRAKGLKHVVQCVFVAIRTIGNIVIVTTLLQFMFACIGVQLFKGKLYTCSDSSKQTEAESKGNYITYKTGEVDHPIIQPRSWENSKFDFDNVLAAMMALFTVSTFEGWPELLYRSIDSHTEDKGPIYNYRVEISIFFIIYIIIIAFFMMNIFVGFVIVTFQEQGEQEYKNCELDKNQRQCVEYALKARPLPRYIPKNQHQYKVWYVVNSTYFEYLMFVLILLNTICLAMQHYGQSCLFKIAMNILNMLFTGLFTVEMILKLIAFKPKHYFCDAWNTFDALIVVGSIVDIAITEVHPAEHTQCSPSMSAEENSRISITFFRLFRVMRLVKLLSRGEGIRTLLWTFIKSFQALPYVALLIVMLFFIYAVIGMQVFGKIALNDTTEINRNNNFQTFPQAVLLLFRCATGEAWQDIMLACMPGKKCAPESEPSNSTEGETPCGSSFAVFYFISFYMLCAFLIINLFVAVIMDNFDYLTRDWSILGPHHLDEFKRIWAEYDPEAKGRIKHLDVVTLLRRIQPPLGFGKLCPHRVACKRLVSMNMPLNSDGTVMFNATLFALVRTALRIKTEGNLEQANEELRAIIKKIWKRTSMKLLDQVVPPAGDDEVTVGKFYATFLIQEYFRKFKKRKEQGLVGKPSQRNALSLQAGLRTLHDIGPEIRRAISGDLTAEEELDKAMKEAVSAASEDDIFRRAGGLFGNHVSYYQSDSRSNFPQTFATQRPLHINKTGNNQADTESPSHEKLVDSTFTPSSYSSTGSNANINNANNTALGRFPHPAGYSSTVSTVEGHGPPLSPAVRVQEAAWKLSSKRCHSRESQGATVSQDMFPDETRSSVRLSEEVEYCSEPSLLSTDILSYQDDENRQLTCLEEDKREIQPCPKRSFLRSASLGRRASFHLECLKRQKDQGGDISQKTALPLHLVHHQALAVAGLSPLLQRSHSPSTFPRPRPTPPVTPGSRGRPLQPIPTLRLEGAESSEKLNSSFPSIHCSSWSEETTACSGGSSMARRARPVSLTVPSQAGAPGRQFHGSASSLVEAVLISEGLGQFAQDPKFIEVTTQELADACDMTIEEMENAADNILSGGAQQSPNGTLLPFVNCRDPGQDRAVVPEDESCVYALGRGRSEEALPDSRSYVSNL
Chain of D(1A) dopamine receptor (P21728 whole entry): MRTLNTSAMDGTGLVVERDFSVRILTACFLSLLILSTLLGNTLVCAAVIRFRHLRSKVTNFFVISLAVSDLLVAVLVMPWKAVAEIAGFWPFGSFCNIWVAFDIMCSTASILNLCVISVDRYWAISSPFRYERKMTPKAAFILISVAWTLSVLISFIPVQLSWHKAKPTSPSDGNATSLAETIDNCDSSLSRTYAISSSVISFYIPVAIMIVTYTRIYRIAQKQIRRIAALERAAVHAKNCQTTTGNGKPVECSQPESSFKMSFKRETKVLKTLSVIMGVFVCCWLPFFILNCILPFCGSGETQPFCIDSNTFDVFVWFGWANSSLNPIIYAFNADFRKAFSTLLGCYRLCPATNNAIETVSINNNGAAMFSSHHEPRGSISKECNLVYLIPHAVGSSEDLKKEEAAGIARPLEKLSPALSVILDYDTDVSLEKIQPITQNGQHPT
Chain of Growth hormone secretagogue receptor type 1 (Q92847 whole entry): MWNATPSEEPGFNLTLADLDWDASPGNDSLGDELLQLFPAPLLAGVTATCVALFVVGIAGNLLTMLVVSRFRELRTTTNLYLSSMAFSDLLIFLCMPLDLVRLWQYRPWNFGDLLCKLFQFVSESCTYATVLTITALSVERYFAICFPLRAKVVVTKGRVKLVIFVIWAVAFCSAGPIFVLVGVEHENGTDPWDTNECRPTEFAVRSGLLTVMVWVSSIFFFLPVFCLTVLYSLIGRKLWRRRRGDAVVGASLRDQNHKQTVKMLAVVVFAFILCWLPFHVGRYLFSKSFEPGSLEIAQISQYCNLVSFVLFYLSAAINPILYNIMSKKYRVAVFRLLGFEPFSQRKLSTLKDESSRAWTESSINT
Chain of Beta-2 adrenergic receptor (P07550 whole entry): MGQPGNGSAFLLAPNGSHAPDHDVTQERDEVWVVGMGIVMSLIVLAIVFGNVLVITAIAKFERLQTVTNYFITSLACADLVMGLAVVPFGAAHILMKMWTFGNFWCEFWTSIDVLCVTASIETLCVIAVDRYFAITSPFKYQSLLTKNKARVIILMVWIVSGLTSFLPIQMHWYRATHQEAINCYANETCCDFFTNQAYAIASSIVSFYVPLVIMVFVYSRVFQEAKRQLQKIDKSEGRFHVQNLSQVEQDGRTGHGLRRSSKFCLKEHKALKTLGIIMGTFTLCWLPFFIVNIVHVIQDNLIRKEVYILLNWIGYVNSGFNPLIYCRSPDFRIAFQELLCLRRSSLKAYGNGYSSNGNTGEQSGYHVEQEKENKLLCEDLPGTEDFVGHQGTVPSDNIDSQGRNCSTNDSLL
Chain of Sodium-dependent dopamine transporter (Q01959 whole entry): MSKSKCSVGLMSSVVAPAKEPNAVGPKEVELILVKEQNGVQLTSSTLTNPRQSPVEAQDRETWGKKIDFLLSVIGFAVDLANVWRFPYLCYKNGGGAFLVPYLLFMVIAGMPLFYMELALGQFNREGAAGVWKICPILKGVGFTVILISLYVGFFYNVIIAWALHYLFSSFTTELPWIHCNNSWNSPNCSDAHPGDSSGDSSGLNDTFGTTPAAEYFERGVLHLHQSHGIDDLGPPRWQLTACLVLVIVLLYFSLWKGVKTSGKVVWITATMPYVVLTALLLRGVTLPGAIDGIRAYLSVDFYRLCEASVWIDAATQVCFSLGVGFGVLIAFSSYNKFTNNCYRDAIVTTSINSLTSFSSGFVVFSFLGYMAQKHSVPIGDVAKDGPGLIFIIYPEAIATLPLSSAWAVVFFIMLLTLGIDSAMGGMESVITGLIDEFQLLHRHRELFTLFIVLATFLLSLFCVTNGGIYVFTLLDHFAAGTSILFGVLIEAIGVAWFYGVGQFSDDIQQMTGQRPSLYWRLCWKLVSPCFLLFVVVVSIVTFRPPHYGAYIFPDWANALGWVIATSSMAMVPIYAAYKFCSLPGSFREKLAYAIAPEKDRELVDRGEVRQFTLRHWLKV
Chain of Cannabinoid receptor 1 (P21554 whole entry): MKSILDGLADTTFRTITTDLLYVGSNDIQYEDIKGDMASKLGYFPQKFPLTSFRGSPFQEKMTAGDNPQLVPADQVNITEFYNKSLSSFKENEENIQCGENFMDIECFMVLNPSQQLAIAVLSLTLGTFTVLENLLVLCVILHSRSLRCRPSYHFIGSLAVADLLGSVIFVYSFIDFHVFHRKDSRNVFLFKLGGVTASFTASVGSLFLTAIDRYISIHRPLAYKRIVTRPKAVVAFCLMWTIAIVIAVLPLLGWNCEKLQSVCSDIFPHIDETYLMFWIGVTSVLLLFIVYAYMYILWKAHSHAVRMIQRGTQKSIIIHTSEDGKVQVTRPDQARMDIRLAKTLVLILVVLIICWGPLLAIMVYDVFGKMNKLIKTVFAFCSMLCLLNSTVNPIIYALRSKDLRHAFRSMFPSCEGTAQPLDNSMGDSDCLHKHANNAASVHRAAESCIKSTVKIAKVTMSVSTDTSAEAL
Chain of Melanocortin receptor 4 (P32245 whole entry): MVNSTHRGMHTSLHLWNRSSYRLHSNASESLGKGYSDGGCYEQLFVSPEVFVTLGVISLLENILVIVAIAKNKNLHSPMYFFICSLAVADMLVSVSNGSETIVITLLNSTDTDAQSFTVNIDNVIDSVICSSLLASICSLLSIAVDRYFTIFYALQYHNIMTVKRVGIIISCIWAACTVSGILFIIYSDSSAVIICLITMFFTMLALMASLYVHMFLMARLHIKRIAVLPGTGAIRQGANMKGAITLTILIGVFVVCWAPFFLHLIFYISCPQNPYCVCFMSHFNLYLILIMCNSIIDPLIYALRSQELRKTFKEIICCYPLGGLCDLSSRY

For the compound `CC(NC(C)(C)C)C(=O)c1cccc(Cl)c1` (stereo not drawn) [BUPROPION], the AC50 in experiment [1] is more than 10 µM; in [2] it was more than 10 µM; in [3], more than 30 µM; in [4], more than 10 µM; in [5] it was more than 10 µM; in experiment [6] it was more than 30 µM. In addition, the AC50 in experiment [7] is more than 10 µM; in experiment [8], more than 30 µM; in experiment [9], more than 10 µM; in [10], more than 30 µM; in experiment [11] it was more than 10 µM.

`CC(=O)[C@@]1(O)CC[C@H]2[C@@H]3C[C@H](C)C4=CC(=O)C=C[C@]4(C)[C@@]3(F)[C@@H](O)C[C@@]21C` [FLUOROMETHOLONE]: the AC50 in experiment [1] is more than 10 µM; in experiment [2], more than 10 µM; in experiment [3], more than 10 µM; in [5] it was more than 10 µM; in experiment [6], more than 30 µM; in experiment [7], more than 10 µM. Further, the AC50 in [12] was more than 10 µM; in [13] it was more than 10 µM; in [8] it was more than 10 µM; in experiment [9], more than 30 µM; in experiment [14], more than 30 µM; in experiment [10] it was more than 10 µM. The AC50 in experiment [15] is more than 10 µM; in experiment [16] it was more than 10 µM; in [11], more than 30 µM.

With `CC1Cc2ccccc2N1NC(=O)c1ccc(Cl)c(S(N)(=O)=O)c1` (stereo not drawn) [INDAPAMIDE], the AC50 in experiment [1] is more than 10 µM; in [2] it was more than 10 µM; in [3], more than 30 µM; in [5], more than 10 µM; in experiment [6] it was more than 30 µM; in experiment [7], more than 10 µM. Further, the AC50 in [12] is more than 10 µM; in experiment [13] it was more than 10 µM; in [8] it was more than 30 µM; in experiment [9], more than 30 µM; in [14], more than 30 µM; in [10] it was more than 30 µM. The AC50 in [15] is more than 10 µM; in [16] it was more than 30 µM; in experiment [11] it was more than 30 µM.

As to `Nc1ccc(S(=O)(=O)Nc2ncccn2)cc1` [SULFADIAZINE], the AC50 in [1], in experiment [2], in experiment [3], in experiment [5], in experiment [7] and in experiment [12] was more than 10 µM throughout. For the same compound, the AC50 in experiment [13] is more than 10 µM; in experiment [8], more than 10 µM; in experiment [9], more than 30 µM; in [14] it was more than 30 µM; in [10], more than 10 µM; in experiment [15], more than 10 µM. In addition, the AC50 in experiment [16] is more than 10 µM; in experiment [11], more than 30 µM.

With `Cc1cccc(Nc2ccncc2S(=O)(=O)NC(=O)NC(C)C)c1` [TORSEMIDE], the AC50 was more than 10 µM in [1]; more than 10 µM in experiment [2]; more than 10 µM in experiment [3]; more than 30 µM in experiment [4]; more than 10 µM in experiment [5]; more than 10 µM in experiment [7]. For the same compound, the AC50 in experiment [12] is more than 10 µM; in experiment [13], more than 10 µM; in experiment [8] it was more than 30 µM; in [9], more than 30 µM; in experiment [14], more than 30 µM; in [10], more than 30 µM. For the same compound, the AC50 in [15] is more than 10 µM; in [16], more than 10 µM; in experiment [11], more than 30 µM.

As to `CCN(C(C)=O)c1cccc(-c2ccnc3c(C#N)cnn23)c1` [ZALEPLON], the AC50 is more than 10 µM in experiment [1]; more than 30 µM in [2]; more than 30 µM in experiment [3]; more than 10 µM in [5]; more than 30 µM in experiment [6]; more than 10 µM in experiment [7]. Also, the AC50 was more than 30 µM in experiment [8]; more than 30 µM in experiment [9]; more than 30 µM in experiment [14]; more than 30 µM in [10]; more than 10 µM in experiment [15]; more than 30 µM in experiment [16]. In experiment [11], this compound had an AC50 of more than 30 µM.
